Data reported in patent US20090298178A1, “GROWTH FACTORS FOR PRODUCTION OF DEFINITIVE ENDODERM” (priority 2008, published 2009).

Columns and labels:
[1] = system: hES cells (CyT49; passage 35); experiment: Differentiation of hES cells to definitive endoderm with activin A plus Wnt3a or GSK3 inhibitors, real-time quantitative PCR at 48 hours (Example 4); format: cell-based, human; details: with 100 ng/mL activin A; inhibitor at 10 or 100 nM; FIG. 6A-B
Description: Undifferentiated hES cells (CyT49; passage 35) were maintained substantially as described in Example 1 above. Ten hES cell culture plates were then differentiated in RPMI (Mediatech) supplemented with Glutamax, penicillin/streptomycin, and varying concentrations of defined FBS (HyClone). FBS concentrations were 0% for the first 24 h and 0.2% for the second 24 h. Additionally, 0.1% BSA (Invitrogen/Gibco) was added on the first day only. All plates received 100 ng/mL activin A for both days. […] Replicate samples were collected from each culture condition at 48 hours after differentiation commenced and analyzed for relative gene expression using real-time quantitative PCR.

[2] = system: hES cells (CyT49; passage 41); experiment: Differentiation of hES cells to definitive endoderm (stage 1) with TGF-beta member growth factors, real-time quantitative PCR (Example 1); format: cell-based, human; details: for effectiveness for induction of definitive endoderm differentiation derived from hES cells: compared with activin A; for fold induction of SOX17 gene expression as compared to undifferentiated hESCs / fold induction of FOXA2 gene expression as compared to undifferentiated hESCs: 100 ng/ml factor, 75 ng/mL Wnt3a on first day, day 2 of differentiation; for fold induction of SOX17 gene expression as compared to undifferentiated hESCs: FIG. 2C; for efficiency in generating definitive endoderm cell populations: sufficient amounts, compared to Activin A and activin B
Description: Human embryonic stem (hES) cells were differentiated in vitro to definitive endoderm (stage 1) for about 2-4 days substantially as described in D'Amour et al. 2006 Nat Biotechnol 24(11):1392-401 and U.S. Patent Application Publication Number 2007/0154984, which are herein incorporated in their entireties. Briefly, undifferentiated human embryonic stem (hES) cells were maintained on mouse embryo fibroblast feeder layers (Millipore, formerly Chemicon or Specialty Media) or on human serum coated plates (Valley Biomedical) in DMEM/F12 (Mediatech) supplemented with 20% KnockOut serum replacement (Invitrogen/Gibco), 1 mM nonessential amino acids (Invitrogen/Gibco), Glutamax (Invitrogen/Gibco), penicillin/streptomycin (Invitrogen/ Gibco), 0.55 mM 2-mercaptoethanol (Invitrogen/Gibco) and 4 ng/ml to 20 ng/mL recombinant human FGF2 (R&D Systems). Low dosages of Activin A (10-25 ng/ml, R&D Systems) were added to the growth culture medium to help maintain undifferentiated growth. Cultures were either manually passaged, or enzymatically passaged using 5 ug/mL dispase (Invitrogen/Gibco), or passaged using Accutase (Innovative Cell Technologies #AT104) at 1:4-1:15 split ratios every 3-7 days. Before initiating differentiation, hES cells were given a brief wash in PBS+/+ (PBS+/+ refers to PBS containing both calcuim and magnesium) (Mediatech).
Four hES cell culture plates (CyT49; passage 41) were then differentiated in RPMI (Mediatech) supplemented with Glutamax, penicillin/streptomycin, and with either: i) 100 ng/mL activin A, ii) 100 ng/mL of activin B (R&D Systems), iii) 100 ng/mL of GDF8, or iv) 100 ng/mL of GDF11 (R&D Systems) and varying concentrations of defined FBS (HyClone). Additionally, 0.1% BSA (Invitrogen/Gibco) and 75 ng/mL Wnt3a (R&D Systems) were added on the first day (d0) of differentiation. FBS concentrations were 0% for the first 24 h and 0.2% for the second 24 h. Replicate samples were collected from each culture condition at 0, 24 and 48 hours after differentiation commenced and analyzed for relative gene expression using real-time quantitative PCR.

[3] = system: hES cells (CyT49); experiment: Further differentiation of definitive endoderm to pancreatic endoderm and endocrine cells, real-time PCR at day 9 (Example 2); format: cell-based, human; details: definitive endoderm produced with 100 ng/mL factor, compared with activin A, FIG. 3
Description: (§1) Human ES cell cultures were maintained and differentiated substantially as described above in Example 1, and further differentiated to foregut endoderm (stage 2) and then onto pancreatic endoderm and pancreatic endocrine cells (stages 3 and 4). After 48 hours of differentiation to definitive endoderm (stage 1) the cells were briefly washed in PBS+/+ and then further differentiated in RPMI supplemented with 0.2% FBS, Insulin-Transferrin-Selenium (1:1000), Glutamax, penicillin/streptomycin, and 25 ng/mL KGF (R&D Systems) for 3 days. On the first day of stage 2, the culture also received TGF-beta inhibitor No. 4 (3-(6-Methylpyridin-2-yl)-4-(4-quinolyl)-1-phenylthiocarbamoyl-1H-pyrazole) at 2.5 uM (EMD Bioscience). After three days in stage 2 the cells were then differentiated for one day in DMEM with B27 supplement (1:100) containing all-trans retinoic acid (RA) at 0.2 uM and KAAD-cyclopamine at 0.25 uM. Following the single day of retinoid exposure, the cells were cultured in DMEM with B27 (1:100) containing noggin at 40 ng/ml. At day 9 of total differentiation, replicate samples were collected from each culture condition and analyzed for relative gene expression using real-time quantitative PCR.

[4] = system: hES cells (CyT49; passage 48); experiment: Differentiation of hES cells with other TGF-beta family member proteins, real-time quantitative PCR (Example 3); format: cell-based, human; details: for CDX2 induction level, fold higher expression over that observed with the activin A treatment: GDF3 500 ng/ml, TGF-beta3 100 ng/mL, FIG. 4C
Description: Undifferentiated human embryonic stem (hES) cells (CyT49; passage 48) were maintained substantially as described in Example 1 above. Seven hES cell culture plates were then differentiated in RPMI (Mediatech) supplemented with Glutamax, penicillin/streptomycin, and either: i) activin A (100 ng/ml), ii) TGF-beta1 (100 ng/ml), iii) TGF-beta3 (100 ng/mL), iv) TGF-beta2 (200 ng/ml), v) GDF3 (500 ng/ml), vi) GDF9 (4 ug/ml), or vii) GDF15 (2.5 ug/ml) and varying concentrations of defined FBS (HyClone). Additionally, 0.1% BSA (Invitrogen/Gibco) and 75 ng/mL Wnt3a (R&D Systems) were added on the first day (d0) of differentiation. FBS concentrations were 0% for the first 24 h and 0.2% for the second 24 h. Replicate samples were collected from each culture condition at 0, 24 and 48 hours after differentiation commenced and analyzed for relative gene expression using real-time quantitative PCR.

[5] = system: hES cells (CyT49; passage 48); experiment: Further differentiation to pancreatic endoderm and endocrine cells, real-time PCR at 12 days (Example 3); format: cell-based, human; details: 12 days of differentiation
Description: as §1
Such conditions are described in Example 2 above. In this example, however, the stage 4 noggin treatment lasted for 6 days and replicate samples were taken for real-time PCR analysis at a total of 12 days of differentiation as compared to 9 days of differentiation in Example 2. […] Similarly, the pancreatic endoderm or endocrine cells expressing endocrine markers NKX2-2 and INS were typically not detected in the non-activin A treated plates (FIG. 5C-D). Stated another way, the activin A treated plates were 1200-fold or more higher in expression of these markers than the non-Activin A treated plates.

[6] = system: hES cells; details: McLean et al. Stem Cells 25:29-38 2007; cited from earlier work

COc1ccc(CNC(=O)Nc2ncc([N+](=O)[O-])s2)cc1 [GSK3 inhibitor No. 8]
differentiation of hES cells to definitive endoderm [1]: Neither GSK3 inhibitor No. 9 (“BIO”) nor GSK3 inhibitor No. 8 (GVIII) at 10 or 100 nM resulted in substantial differentiation

O=C1Nc2cc(Br)ccc2/C1=C1/Nc2ccccc2/C1=N\O [GSK3 inhibitor No. 9]
differentiation of hES cells to definitive endoderm [1]: Neither GSK3 inhibitor No. 9 (“BIO”) nor GSK3 inhibitor No. 8 (GVIII) at 10 or 100 nM resulted in substantial differentiation

GDF8: TGF-beta family member, also referred to as myostatin
effectiveness for induction of definitive endoderm differentiation derived from hES cells ([2]; 100 ng/mL): as effective as activin A
fold induction of SOX17 gene expression as compared to undifferentiated hESCs [2]: 1324 fold
fold induction of FOXA2 gene expression as compared to undifferentiated hESCs ([2]; FIG. 2D): 438 fold
efficiency in generating definitive endoderm cell populations [2]: more efficient compared to activin B
subsequent differentiation of definitive endoderm to pancreatic endoderm expressing PDX1 and PTF1A or endocrine cells expressing NKX2-2 [3]: as effective

GDF11: TGF-beta family member with approximately 90% identity to myostatin
effectiveness for induction of definitive endoderm differentiation derived from hES cells ([2]; 100 ng/mL): as effective as activin A
fold induction of SOX17 gene expression as compared to undifferentiated hESCs [2]: 1306 fold
fold induction of FOXA2 gene expression as compared to undifferentiated hESCs ([2]; FIG. 2D): 382 fold
efficiency in generating definitive endoderm cell populations [2]: more efficient compared to activin B
subsequent differentiation of definitive endoderm to pancreatic endoderm expressing PDX1 and PTF1A or endocrine cells expressing NKX2-2 [3]: as effective

activin A: TGF-beta family growth factor used at 100 ng/mL to produce definitive endoderm
definitive endoderm production as indicated by induction of SOX17 and CER1 gene expression ([4]; activin A 100 ng/ml, other ligands 100 ng/ml to 4 ug/ml, 75 ng/mL Wnt3a on first day, FIG. 4A-B): definitive endoderm was produced only in the activin A treatment condition
expression of endocrine markers NKX2-2 and INS, fold higher than the non-Activin A treated plates ([5]; FIG. 5C-D): ≥ 1200 fold
production of pancreatic endoderm and endocrine cell types as indicated by induction of PDX1, PTF1A, NKX2-2 and INS gene expression ([5]; FIGS. 5A-D): produced only in the activin A treatment condition
PDX1 expression level, fold higher in the presence of activin A as compared to GDF15 ([5]; comparator GDF15, FIG. 5A): 14,497 fold
PDX1 expression level, fold higher in the presence of activin A as compared to TGF-beta1 ([5]; comparator TGF-beta1, FIG. 5A): 1413 fold

insulin: protein that binds to the insulin receptor and can induce signaling
insulin concentration detrimental for the production of definitive endoderm cells from hES cells [6]: ≥ 0.2 µg/mL

B1: activin B: TGF-beta family growth factor (R&D Systems) (protein, UniProt P09529 293-407, looked up)
Inhibin beta B chain: GLECDGRTNLCCRQQFFIDFRLIGWNDWIIAPTGYYGNYCEGSCPAYLAGVPGSASSFHTAVVNQYRMRGLNPGTVNSCCIPTKLSTMSMLYFDDEYNIVKRDVPNMIVEECGCA
expression of ISL1 as compared to activin A treated cultures ([2]; 100 ng/mL, FIG. 2B, indicates mesoderm differentiation): higher expression
FOXA2 induction (in words) ([2]; 100 ng/mL, FIG. 2D): lower
subsequent differentiation of definitive endoderm to pancreatic endoderm expressing PDX1 and PTF1A or endocrine cells expressing NKX2-2 [3]: less effective

B2: GDF3: TGF-beta family member also known as Vg-related gene 2 (protein, UniProt Q9NR23 251-364, looked up)
Growth/differentiation factor …: AAIPVPKLSCKNLCHRHQLFINFRDLGWHKWIIAPKGFMANYCHGECPFSLTISLNSSNYAFMQALMHAVDPEIPQAVCIPTKLSPISMLYQDNNDNVILRHYEDMVVDECGCG
CDX2 induction level, fold higher expression over that observed with the activin A treatment [4]: 900 fold

B3: TGF-beta3: isoform of transforming growth factor beta (protein, UniProt P10600 301-412, looked up)
Transforming growth factor …: ALDTNYCFRNLEENCCVRPLYIDFRQDLGWKWVHEPKGYYANFCSGPCPYLRSADTTHSTVLGLYNTLNPEASASPCCVPQDLEPLTILYYVGRTPKVEQLSNMVVKSCKCS
CDX2 induction level, fold higher expression over that observed with the activin A treatment [4]: 2,667 fold
